Laboratory results as given in paper PMC6176987, “Correction of cognitive deficits in mouse models of Down syndrome by a pharmacological inhibitor of DYRK1A” (Disease Models & Mechanisms, 2018).

What was measured:
CLK2 = CLK2 (Mus musculus, UniProt O35491); assay: Recombinant protein kinase assay, CLK2; format: biochemical
Tg(Dyrk1a) mice = assay: Novel object recognition (NOR) test in Tg(Dyrk1a) mice; format: in vivo, mouse; conditions: for Recovery in NOR test: 20 mg/kg daily i.p., 24 h retention delay
Dp1Yey mice [1] = assay: Novel object recognition (NOR) test in Dp1Yey mice; format: in vivo, mouse; conditions: daily i.p. treatment for 19 days
Experimental: Behavioural studies were conducted in 12- to 20-week-old male animals. All assessments were scored blind to genotype and treatment, as recommended by the ARRIVE guidelines ([Karp et al., 2015]; [Kilkenny et al., 2010]). […] The final formulation was prepared just prior to use as a 2 mg/ml solution diluted in PEG300/water (50/45), to reach a final DMSO/PEG300/water 5/50/45 (v/v/v) mix. Treated animals received a daily dose (5, 12 or 19 days) of this formulation by i.p. injection of 20 mg/kg/day. Nontreated animals received the same formulation without L41.
The NOR task is based on the innate tendency of rodents to differentially explore a novel object over a familiar one ([Ennaceur and Delacour, 1988]). Day 1 was a habituation session. Mice freely explored the apparatus, a white circular arena (53 cm diameter) placed in a dimly lit testing room (40 lux). On day 2, the acquisition phase, mice were free to explore two identical objects for 10 min. Mice were then returned to their home cage for a 24 h retention interval. […] Object exploration was manually scored and defined as the orientation of the nose to the object at a distance <1 cm. For the retention phase, the percent of time spent exploring familiar versus novel objects was calculated to assess memory performance.

DYRK1A [2] = biological target: T1, DYRK1A (Mus musculus, UniProt Q61214); assay: Brain DYRK1A catalytic activity after treatment, Tg(Dyrk1a) mice; format: in vivo
T1 construct: DYRK1A was purified from brain extracts by immunoprecipitation; from tissue; host or cells: mouse brain (wt, Tg(Dyrk1a), Ts65Dn)
Experimental: (§1) Protein kinase assays to measure the catalytic activity of DYRK1A in the brains of the animals treated with or without drugs were performed as follows: frozen half brains were homogenized in lysis buffer (1.2 ml/half brain) using Precellys® homogenizer tubes. After centrifugation at 2800 g for 2×15 s, 1 mg brain extract was incubated with 2 µg DYRK1A (H00001859 M01, Interchim) or GSK3-β (MBS8508391, Emelca Bioscience, France) antibodies at 4°C for 1 h under gentle rotation. Then, 20 µl protein G agarose beads (Thermo Fisher Scientific, France), previously washed three times with bead buffer (50 mM Tris pH 7.4, 5 mM NaF, 250 mM NaCl, 5 mM EDTA, 5 mM EGTA, 0.1% Nonidet P-40 and protease inhibitor cocktail from Roche, France), were added to the mix and gently rotated at 4°C for 30 min. After a 1 min spin at 10,000 g and removal of the supernatant, the pelleted immune complexes were washed three times with bead buffer, and a last time with Buffer C (60 mM β-glycerophosphate, 30 mM p-nitrophenolphosphate, 25 mM Mops pH 7.2, 5 mM EGTA, 15 mM MgCl2, 2 mM dithiothreitol, 0.1 mM sodium orthovanadate, 1 mM phenylphosphate, protease inhibitor cocktail). DYRK1A or GSK-3 immobilized on beads were assayed in buffer C as described in the Supplementary Materials and Methods with Woodtide ([…]) (1.5 µg/assay) or GSK3-tide ([…]pSED-EEE, where pS stands for phosphorylated serine) as substrates.

DYRK1A [3] = biological target: T1, DYRK1A; assay: Brain DYRK1A catalytic activity after treatment, wt mice; format: in vivo; conditions: 19 days daily i.p.
Experimental: as §1

DYRK1A [4] = biological target: T1, DYRK1A; assay: In vitro kinase activity of DYRK1A immunopurified from mouse brains; format: biochemical; conditions: DYRK1A from untreated wt, Tg(Dyrk1a) and Ts65Dn brains, increasing concentrations
Dp1Yey mice [5] = assay: Resting state fMRI brain functional connectivity, Dp1Yey mice; conditions: L41-treated vs vehicle-treated Dp1Yey mice

Sequence of CLK2 (O35491 whole entry): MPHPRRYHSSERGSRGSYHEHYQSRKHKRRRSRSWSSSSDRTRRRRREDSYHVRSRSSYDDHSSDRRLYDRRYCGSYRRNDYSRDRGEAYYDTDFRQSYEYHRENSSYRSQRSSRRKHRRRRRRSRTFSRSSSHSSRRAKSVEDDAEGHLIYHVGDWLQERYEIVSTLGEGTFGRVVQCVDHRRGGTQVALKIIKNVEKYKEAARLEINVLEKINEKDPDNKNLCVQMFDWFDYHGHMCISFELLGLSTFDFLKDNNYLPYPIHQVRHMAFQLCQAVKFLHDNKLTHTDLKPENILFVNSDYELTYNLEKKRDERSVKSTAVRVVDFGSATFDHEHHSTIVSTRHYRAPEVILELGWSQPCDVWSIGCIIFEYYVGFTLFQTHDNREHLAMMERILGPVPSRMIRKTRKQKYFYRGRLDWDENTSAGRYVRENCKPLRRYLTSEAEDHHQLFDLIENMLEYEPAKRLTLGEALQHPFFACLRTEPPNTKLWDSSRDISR

O=C1NC(Nc2ccccc2)=N/C1=C\c1ccc2c(c1)OCO2 [L41]
IC50 (CLK2): 130 nM
Recovery in NOR test (Tg(Dyrk1a) mice; 5 days): only marginally
Recovery in NOR test (Tg(Dyrk1a) mice; 12 days): consistently
Recovery in NOR test (Tg(Dyrk1a) mice; 19 days): fully observed
Persistence of NOR rescue (Tg(Dyrk1a) mice; 24 h after the last day of the 19 day treatment): rescuing effect was detectable
Persistence of NOR rescue (Tg(Dyrk1a) mice; 48 h after the last day of the 19 day treatment): no rescue
NOR test outcome (Dp1Yey mice [1]): rescue
Tg(Dyrk1a) brain DYRK1A activity (DYRK1A [2]; 24 h after the last treatment of 19 days): normalized to wt levels
Tg(Dyrk1a) brain DYRK1A activity (DYRK1A [2]; 48 h after the last treatment of 19 days): no more effects
DYRK1A inhibition in Tg(Dyrk1a) mice brains (DYRK1A [2]; 5 days of treatment): not significant
Tg(Dyrk1a) brain DYRK1A activity (DYRK1A [2]; 12 days of treatment): normalized
Reduction of brain DYRK1A activity (DYRK1A [2]; 19 days daily i.p., normalized to GSK-3α/β activity): ~30%
Tg(Dyrk1a) brain DYRK1A activity (DYRK1A [2]; 19 days of treatment): normalized
Effect on brain DYRK1A activity (DYRK1A [3]): did not reduce
In vitro inhibition of brain DYRK1A (DYRK1A [4]): almost fully inhibited
Effect on altered default mode network (DMN) pattern (Dp1Yey mice [5]): rescued
